Consider twelve compounds from ChEMBL document CHEMBL1201862, “PubChem BioAssay data set” (2004).

Among the test systems are A498; ACHN; CAKI-1; HCT-116; HOP-62; IGROV-1; LXFL 529; OVCAR-3; OVCAR-5; RPMI-8226; RXF 393; SF-295; SN12C; UACC-257; UO-31; COLO 205; Hs-578T; MDA-MB-231; MCF7; NCI/ADR-RES.
Common to all, as to experiment: NCI tumour cell line growth inhibition, 48 h

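Interpolation was linear, between the two tested concentrations surrounding the appropriate level; five concentrations were tested over 48 hours in 96-well plates. GI50: concentration for 50% inhibition of growth.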 Calls of active or inactive are those of the source. Cut-off read from the data, not from the text of the source: active = GI50 up to about 1.1 µM and inactive = higher.

Consider `O=[N+]([O-])c1ccccc1[S+]([O-])c1ccccc1` (stereo not drawn), for which the GI50 with A498 is 63.2 µM (inactive); in the assay on ACHN, 69.7 µM (inactive); in the assay on CAKI-1 it was 60.4 µM (inactive); with HCT-116, 57.9 µM (inactive); with HOP-62, > 100 µM (inactive); with IGROV-1, 68.2 µM (inactive). The GI50 with LXFL 529 is > 100 µM (inactive); with OVCAR-3, 73.8 µM (inactive); with OVCAR-5, > 100 µM (inactive); in the assay with RPMI-8226, 52.5 µM (inactive); in the assay with RXF 393, 84.1 µM (inactive); in the assay with SF-295, 90.8 µM (inactive). Also, the GI50 with SN12C was 75.5 µM (inactive); in the assay on UACC-257, 20.7 µM (inactive); with UO-31, 63.5 µM (inactive).
In the case of `CSc1nc2c(c(O)c(C)c(=O)n2C2OC(COC(C)=O)C(OC(C)=O)C(OC(C)=O)C2OC(C)=O)c(=O)n1C` (stereo not drawn), the GI50 in the assay with A498, with ACHN, with CAKI-1, in the assay on COLO 205, with HCT-116 and in the assay with HOP-62 was > 100 µM (inactive) each time. The GI50 with IGROV-1 is > 100 µM (inactive); with LXFL 529 it was > 100 µM (inactive); in the assay with OVCAR-3 it was > 100 µM (inactive); with OVCAR-5, > 100 µM (inactive); with RPMI-8226 it was < 0.01 µM (active); in the assay on RXF 393, > 100 µM (inactive). In addition, the GI50 in the assay on SF-295 was > 100 µM (inactive); with SN12C, > 100 µM (inactive); in the assay with UACC-257 it was > 100 µM (inactive); in the assay with UO-31, > 77.4 µM (inactive).
For the compound `CC1(C)C(c2ccccc2)C12CCC1(C2=O)C(c2ccccc2)C1(C)C` (stereo not drawn), the GI50 in the assay on A498 is 34.6 µM (inactive); with ACHN it was 19.6 µM (inactive); with CAKI-1, 23.1 µM (inactive); with COLO 205 it was 18.8 µM (inactive); in the assay with HCT-116, 16.6 µM (inactive); in the assay on HOP-62, 26.1 µM (inactive). The GI50 with IGROV-1 was 31.8 µM (inactive); with LXFL 529 it was 31.5 µM (inactive); with OVCAR-3 it was 19.9 µM (inactive); in the assay with OVCAR-5, 24.7 µM (inactive); with RPMI-8226, 14.3 µM (inactive); in the assay on RXF 393, 20.1 µM (inactive). Also, the GI50 is 19.4 µM (inactive) in the assay with SF-295, 27.1 µM (inactive) in the assay with SN12C, 17.9 µM (inactive) with UACC-257 and 19.9 µM (inactive) with UO-31.
Regarding `C=CCOCCCCC(C(C)=O)C(=O)OC` (stereo not drawn), the GI50 in the assay with A498, in the assay with ACHN, with CAKI-1, in the assay with COLO 205, with HCT-116 and with IGROV-1 was > 100 µM (inactive) in each case. Moreover, the GI50 in the assay with LXFL 529, with OVCAR-3, in the assay on OVCAR-5, in the assay on RPMI-8226, in the assay on RXF 393 and in the assay on SF-295 was > 100 µM (inactive) each time. Moreover, the GI50 in the assay with SN12C, in the assay with UACC-257 and in the assay with UO-31 was > 100 µM (inactive) each time.
As for `Cc1ccc(NC(=O)C2C3C=CC(O3)C2C(=O)O)cc1` (stereo not drawn), the GI50 was > 100 µM (inactive) in the assay with A498; > 100 µM (inactive) with ACHN; 45 µM (inactive) with COLO 205; > 100 µM (inactive) in the assay on HCT-116; > 100 µM (inactive) in the assay on HOP-62; > 100 µM (inactive) with IGROV-1. Further, the GI50 with LXFL 529 was > 100 µM (inactive); in the assay with OVCAR-3, > 100 µM (inactive); in the assay on OVCAR-5, > 100 µM (inactive); with RPMI-8226, 24.3 µM (inactive); in the assay with RXF 393, 23.6 µM (inactive); in the assay on SF-295 it was > 100 µM (inactive). The values for the GI50 in the assay with SN12C, in the assay with UACC-257 and with UO-31 were > 100 µM (inactive), 87.1 µM (inactive) and > 100 µM (inactive), respectively.
With `Nc1nc2ncn(CCO)c2c(=S)[nH]1`, the GI50 with A498, in the assay on ACHN, in the assay with CAKI-1, in the assay on COLO 205, in the assay on HCT-116 and in the assay on HOP-62 was > 100 µM (inactive) in each case. The GI50 in the assay with IGROV-1, with LXFL 529, in the assay with OVCAR-3, with OVCAR-5, in the assay with RPMI-8226 and in the assay with RXF 393 was > 100 µM (inactive) throughout. Moreover, the GI50 in the assay with SF-295, with SN12C, in the assay with UACC-257 and in the assay on UO-31 was > 100 µM (inactive) throughout.
For `c1ccc([B-]23Oc4ccccc4[NH+]2c2ccccc2O3)cc1` (stereo not drawn), the GI50 in the assay on A498 was > 100 µM (inactive); with ACHN it was 75.7 µM (inactive); in the assay with CAKI-1, > 100 µM (inactive); in the assay with COLO 205, 49 µM (inactive); in the assay with HCT-116, > 100 µM (inactive); in the assay with HOP-62, > 100 µM (inactive). In addition, the GI50 is > 100 µM (inactive) with IGROV-1; 63.8 µM (inactive) with LXFL 529; 56.6 µM (inactive) with OVCAR-3; > 100 µM (inactive) with OVCAR-5; 23.9 µM (inactive) in the assay on RPMI-8226; > 100 µM (inactive) in the assay on RXF 393. In addition, the GI50 in the assay on SF-295, in the assay on SN12C and with UACC-257 was > 100 µM (inactive) each time.
In the case of `O=C1c2ccccc2C(=O)c2sc(Nc3ccc(Cl)c(Cl)c3)nc21`, the GI50 in the assay on A498 is 16.6 µM (inactive); in the assay on ACHN it was 1.75 µM (inactive); in the assay on CAKI-1 it was 3.07 µM (inactive); in the assay with COLO 205, 8 µM (inactive); in the assay with HCT-116, 3 µM (inactive); with HOP-62, 7.38 µM (inactive). Also, the GI50 with Hs-578T is 6.92 µM (inactive); in the assay with IGROV-1, 3.82 µM (inactive); in the assay with LXFL 529, 1.82 µM (inactive); with MDA-MB-231, 2.17 µM (inactive); with OVCAR-3 it was 2.49 µM (inactive); in the assay on OVCAR-5, 2.9 µM (inactive). In addition, the GI50 in the assay on RPMI-8226 was 2.02 µM (inactive); in the assay with RXF 393, 7.4 µM (inactive); in the assay on SF-295 it was 15.2 µM (inactive); in the assay on SN12C it was 1.83 µM (inactive); with UACC-257 it was 4.01 µM (inactive); in the assay with UO-31, 2.12 µM (inactive).
Take `CC(C)C(=O)Nc1nc2[nH]cnc2c(=O)[nH]1`: the GI50 with A498, in the assay with ACHN, with CAKI-1, in the assay on COLO 205, in the assay on HCT-116 and with HOP-62 was > 100 µM (inactive) throughout. In addition, the GI50 with IGROV-1, with LXFL 529, in the assay on OVCAR-3, with OVCAR-5, with RPMI-8226 and in the assay on RXF 393 was > 100 µM (inactive) each time. The GI50 in the assay with SF-295, in the assay on SN12C, in the assay with UACC-257 and with UO-31 was > 100 µM (inactive) in each case.
In the case of `C=C(C)[C@H](O)C(O)CC(C)[C@@H]1CCC23CC12CCC1[C@@]2(C)CCC(OC(C)=O)C(C)(C)C2CC(OC2OC(COC(C)=O)C(O)C(O)C2O)[C@]13C` (stereo partly drawn), the GI50 in the assay on A498 is 7.98 µM (inactive); in the assay on ACHN, 6.61 µM (inactive); with CAKI-1, 6.22 µM (inactive); in the assay on COLO 205 it was 6.61 µM (inactive); with HCT-116, 3.8 µM (inactive); in the assay on HOP-62 it was 6.92 µM (inactive). For the same compound, the GI50 in the assay on IGROV-1 is 3.78 µM (inactive); in the assay with LXFL 529, 5.32 µM (inactive); in the assay with OVCAR-3, 5.83 µM (inactive); with OVCAR-5, 7.69 µM (inactive); in the assay with RPMI-8226, 1.5 µM (inactive); in the assay on RXF 393 it was 2.9 µM (inactive). Moreover, the GI50 was 6.59 µM (inactive) with SF-295, 6.75 µM (inactive) in the assay on SN12C, 6.01 µM (inactive) in the assay with UACC-257 and 8.18 µM (inactive) in the assay with UO-31.
Consider `COc1cc(C2c3cc4c(cc3[C@@H](Nc3ccc(N)cc3)C3COC(=O)[C@H]23)OCO4)cc(OC)c1O` (stereo partly drawn), for which the GI50 in the assay on A498 is 1.18 µM (inactive); with ACHN, 1.25 µM (inactive); with CAKI-1, 0.446 µM (active); with COLO 205 it was 7.85 µM (inactive); in the assay on HCT-116, 2.7 µM (inactive); with HOP-62 it was 0.363 µM (active). The GI50 was 3.35 µM (inactive) with IGROV-1; 8.59 µM (inactive) with LXFL 529; 0.0451 µM (active) in the assay with MCF7; 12.3 µM (inactive) in the assay on MDA-MB-231; 3.75 µM (inactive) with NCI/ADR-RES; 6.1 µM (inactive) in the assay on OVCAR-3. Also, the GI50 was 4.08 µM (inactive) in the assay on OVCAR-5; 0.425 µM (active) with RPMI-8226; 3.91 µM (inactive) with RXF 393; 0.403 µM (active) with SF-295; 0.711 µM (active) in the assay with SN12C; 7.19 µM (inactive) in the assay on UACC-257. For the same compound, the GI50 with UO-31 was 1.34 µM (inactive).
Turning to `COC(=O)c1cc2c(nc1C)-c1ccccc1OS2(=O)=O`, the GI50 with A498 was > 100 µM (inactive); in the assay on ACHN it was > 100 µM (inactive); in the assay on CAKI-1, > 100 µM (inactive); in the assay on COLO 205, > 100 µM (inactive); with HCT-116, > 100 µM (inactive); with HOP-62, 27.5 µM (inactive). In addition, the GI50 in the assay with IGROV-1 was > 100 µM (inactive); in the assay with LXFL 529, > 100 µM (inactive); in the assay on OVCAR-3 it was > 100 µM (inactive); in the assay with OVCAR-5, > 100 µM (inactive); in the assay on RPMI-8226, > 100 µM (inactive); in the assay on RXF 393 it was 32.6 µM (inactive). The GI50 is 43.1 µM (inactive) in the assay on SF-295, > 100 µM (inactive) with SN12C, > 100 µM (inactive) in the assay with UACC-257 and > 100 µM (inactive) in the assay on UO-31.
